According to PubChem BioAssay (NCI):
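Cultured in 96-well plates, cells were exposed to test compound for 48 hours across five concentrations. The concentration for 50% growth inhibition is given as GI50. At the TGI there is no net growth.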

Columns and labels:
Assay in all cases: NCI-60 cell line screen, 48 h
[1] = tested on: SNB-19 CNS
[2] = tested on: T-47D breast
[3] = tested on: CCRF-CEM leukemia
[4] = tested on: NCI-H226 lung
[5] = tested on: SN12C renal
[6] = tested on: MCF7 breast
[7] = tested on: SK-MEL-5 melanoma
[8] = tested on: CAKI-1 renal
[9] = tested on: SF-295 CNS
[10] = tested on: NCI/ADR-RES ovarian

Compound | TGI [1] | TGI [2] | TGI [3] | TGI [4] | TGI [5] | TGI [6] | TGI [7] | TGI [8] | TGI [9] | TGI [10] | GI50 [1] | GI50 [2] | GI50 [3] | GI50 [4] | GI50 [5] | GI50 [6] | GI50 [7] | GI50 [8] | GI50 [9] | GI50 [10]
CC(C)OC(=O)Nc1c([N+](=O)[O-])cc(C(F)(F)F)cc1[N+](=O)[O-] | > 100 µM | > 100 µM | > 100 µM | > 100 µM | > 100 µM | > 100 µM | > 100 µM | > 100 µM | 98.2 µM | > 100 µM |  |  |  |  |  |  |  |  |  | 
Clc1ccc(NCNC2Nc3ccccc3N2)cc1Cl | > 100 µM | > 100 µM | > 100 µM | > 100 µM | > 100 µM | 29.1 µM | 54.6 µM | > 100 µM | > 100 µM | > 100 µM |  |  |  |  |  |  |  |  |  | 
O=C(O)CN(CCN(CC(=O)O)CC(=O)O)CCN(CC(=O)O)CC(=O)O | 61.6 µM | 14.5 µM | > 100 µM | 16.5 µM | 13.9 µM | 22.1 µM | 9.07 µM | 20.2 µM | 21.3 µM | 13.7 µM | 5.18 µM | 3.74 µM | 3.18 µM | 4.65 µM | 2.8 µM | 3.75 µM | 2.92 µM | 3.58 µM | 3.25 µM | 3.1 µM
CCOC(=O)c1sc2nc(=S)[nH]c(NC(N)=S)c2c1C | > 100 µM | 37 µM | 73.9 µM | 21.1 µM | 26.9 µM | 37.2 µM | 31.7 µM | 61.7 µM | 65.8 µM | 29.9 µM | 28.1 µM | 11.3 µM | 7.22 µM |  | 13.1 µM | 16.5 µM | 16.8 µM | 31.4 µM | 24.4 µM | 12.7 µM
C=C(C)[C@@H]1CC[C@]2(C(=O)OC)CC[C@]3(C)[C@H](CC[C@@H]4[C@@](C)(CCc5nn[nH]n5)[C@H](C(=C)C)CC[C@]43C)[C@@H]12 | 35.7 µM | 84.3 µM | 37.2 µM | 47.7 µM | 32.8 µM | 70.5 µM | 24.4 µM | 35 µM | 44.3 µM | 73.2 µM | 15.4 µM | 15.2 µM | 6.72 µM | 15.3 µM | 14.7 µM | 17 µM | 11.4 µM | 10.2 µM | 13.6 µM | 20.8 µM
O=C(c1ccccc1)c1nc2ccc(Cl)cc2cc1C(Br)Br | 1.42 µM | 1.12 µM | 7.11 µM | 3.26 µM | 0.836 µM | 1.96 µM | 2.01 µM | 1.75 µM | 0.939 µM | 0.505 µM |  |  |  |  |  |  |  |  |  | 
CN1CCN(CCCOC(=O)c2c3c(n4ccccc24)C(=O)c2ncccc2C3=O)CC1 | 1.45 µM | 29.6 µM | > 30.4 µM | 1.08 µM | 0.294 µM | 0.0178 µM | 0.592 µM | 0.366 µM | 0.199 µM | 12.9 µM | < 0.01 µM | 1.89 µM | 0.041 µM | 0.0178 µM | < 0.01 µM | < 0.01 µM | 0.0269 µM | < 0.01 µM | < 0.0117 µM | < 0.0107 µM
COc1cccc2c1C(=O)c1c(O)c3c(c(O)c1C2=O)C[C@@](O)(/C(C)=N/NC(=O)c1cccc([N+](=O)[O-])c1)C[C@@H]3OC1CC(N)C(O)C(C)O1 (stereo partly drawn) | 12 µM | 1.26 µM | 4.33 µM | 0.714 µM | 16.9 µM | 18.5 µM | 0.361 µM | 2.74 µM | 0.997 µM | 35.8 µM | 0.291 µM | 0.176 µM | 0.167 µM | 0.16 µM | 0.233 µM | 0.0613 µM | 0.113 µM | 0.411 µM | 0.187 µM | 5.26 µM
CC(C)Cn1cnc2c(N)nc3ccccc3c21 | > 100 µM | > 100 µM | > 100 µM | > 100 µM | > 100 µM | > 100 µM | 50.3 µM | > 100 µM | > 100 µM | > 100 µM | > 93.3 µM | 41.6 µM | > 49 µM | 73.6 µM | 78.8 µM | 29.4 µM | 18.4 µM | 34.8 µM | 51.3 µM | 49 µM
Oc1ccc(CCNc2nc3ccccc3c3[nH]c4ccccc4c23)cc1O | 11.2 µM | 32.2 µM | 4.35 µM | 24.3 µM | 7.29 µM |  | 11.5 µM | 22.9 µM | > 100 µM | 32.2 µM | 3.06 µM | 14.2 µM | 1.59 µM | 11 µM | 1.94 µM | 3.13 µM | 3.2 µM | 11 µM | 5.51 µM | 9.15 µM
